Results reported in patent US12503426B2, “Synthetic derivatives of oleoyl-lysophosphatidylinositol (oleoyl-LPI) and uses thereof” (LIPOVEXA SRL, priority 2017, dated 2025).

Assays:
Danio rerio larvae = assay: Zebrafish toxicity test; assay type: in vivo; conditions: two-days old larvae treated for 3 days; heartbeat, movement, teratogenicity; preliminary experiment
Description: About two-days old Danio rerio larvae may be dechorionated and treated for about 3 days with increasing amount of any synthetic compound of formula I or salt or solvate thereof of this invention. The cardiotoxicity effect of the compound or salt or solvate may be assessed by measuring the heartbeat, the movement, and teratogenicity (hatching rate, mortality rate (LD50). The experiment may be repeated for three times or more times e.g., with about 10 larvae per concentration tested.
Two-days old Danio rerio larvae were dechorionated and treated for 3 days with increasing amount of a synthetic compound of formula I such as ps297b.

NCI-H716 cells = assay: GLP-1 secretion in NCI-H716 cells, in vitro human L cells model (Examples 30-33); assay type: cell-based
Procedure: (§1) To evaluate the GLP-1 biosynthesis and secreting capabilities of the compounds of formula I in vitro using the human-derived cell line NCI-H716, 50,000 such cells were seeded per well of a 24-well plate pre-coated with a thin layer of Matrigel (0.15 mg/ml) in RPMI complete (RPMI additioned with FBS 10%, Glucose 2 g/L, Glutamine 4 mM, Sodium Bicarbonate 2 g/L, Pen/Strep 1× pH 7.4 at 37° C.) and incubated at 37° C. in humidified 5% CO2 atmosphere to induce endocrine differentiation.
After 48 hours, media was withdrawn and cells washed once with warm HBSS (Hank's balanced salt solution) and then incubated in duplicate for 2 hours with the different dilutions of the oleoyl-LPI, OEA, DMSO (as negative control), a test compound of formula I, and KR-62436 10 μg/ml, all dissolved in RPMI serum free (RPMI complete without FBS) at 37° C. in humidified 5% CO2 incubator. Supernatant were quickly collected on ice and stored at −80° C. before quantification of GLP-1 with a commercial ELISA (EMD Millipore) specific for active-GLP-1 species.
as §1, with “1×pH” for “1× pH”
After 48 hours, media was withdrawn and cells washed twice with pre-warm HBSS (Hank's balanced salt solution) and then incubated in duplicate for 2 hours with 250 μl of 20 μM of either oleoyl-LPI, DMSO (as negative control) or a test compound of formula I, and […], all dissolved in RPMI serum free (RPMI complete without FBS) at 37° C. in humidified 5% CO2 incubator. Compounds of formula I tested were ps297b, ps316a, ps318a, ps319a, ps321a and ps323.
Supernatant were quickly collected on ice and stored at −80° C. before quantification of GLP-1 with a commercial ELISA (EMD Millipore) specific for active-GLP-1 species (e.g., GLP-1 (7-36) amide) and […]).
Compounds of formula I were tested for GLP-1 secretion in NCI-H716 cells essentially as describe in examples 30 and 31 above. EC50 GLP-1 secretion readout results were standardized relative to maximum GLP-1 secretion obtained with oleoyl-LPI. EC50 readout results were rated as low GLP-1 secretion activity (0-20% of maximum GLP-1 secretion achieved with oleoyl-LPI), moderate (21-79% of maximum GLP-1 secretion achieved with oleoyl-LPI), and high GLP-1 activity (80% and more of maximum GLP-1 secretion achieved with oleoyl-LPI). Table 3 also outlines the R1, R2 and R3 substituents of the compounds of formula I.

[1] = system: colonic cells of the GI tract obtained from guinea pig; assay: Ex vivo GLP-1 biosynthesis and secretion, guinea pig GI tract cells; assay type: cell-based
Procedure: To test for this, a pregnant guinea pig was anesthetized with isoflurane and sacrificed via intra-cardial injection of pentobarbital. Colon and rectum were quickly collected and intraluminal content washed out with ice-cold HBSS. After a thorough cleansing from the faecal material, and gentle scraping of the internal mucosa, the tissue was minced into 3 to 5-millimetre pieces and resuspended into 50 ml of ice cold HBSS. Pellet was spun down and washed again in 50 ml of ice-cold HBSS. Supernatant was carefully removed, and the epithelial fragments were then resuspended for 30 minutes at 37° C. into a 5 ml solution of HEPES 25 mM, collagenase-P 1 mg/ml in HBSS, pH 7.4 at 37° C.
The tissue was then pelleted and resuspended further for about 30 to 40 additional minutes at 37° C. within a 10 ml solution of 1 mg/ml collagenase-P as above.
After the digestion, about 40 ml of pre-warmed DMEM complete media was added (FBS 10%, glucose 4.5 g/L, glutamine 4 mM, sodium pyruvate 1 mM, HEPES 25 mM, sodium bicarbonate 3.7 g/L, Pen/Strep 1× and Ciprofloxacin 10 μg/ml pH 7.4 at 37° C.). Crypts and individual cells were isolated with a […] nylon strainer, spun down at 200 g for 5 minutes, resuspended into 10 ml of DMEM complete media and plated into 20 wells of a 24-well plate coated with a 3D gel of 3 mg/ml Matrigel (BD, Biosciences, Oxford, UK). After one day of incubation at 37° C. 5% CO2 in a humidified incubator, cells were washed with 500 μl of warm HBSS, and treated with 250 μl DMEM serum free (Complete medium without FBS) additioned with KR-62436 10 μg/ml and individually the following drugs or compounds: Forskolin and IBMX (20 μM each), oleoyl-LPI, and the two oleoyl-LPI analogs and/or derivatives ps297b (prepared as described in example 13) and ps316a (prepared as described in example 22) were all tested in quadruplicate at 20 μM.
After a 2-hour long incubation at 37 C 5% CO2, the supernatants were collected on ice, and quickly stored at […]. Active GLP-1 levels (7-37 amide and 7-36) were quantified on 50 μl of supernatant with an ELISA commercial kit (EMD Millipore). DMSO was used as a negative control, the combination of Forskolin and IBMX was included as positive control activators GLP-1. GLP-1 levels measured were standardized against the DMSO control.
The EC50 levels each one of oleoyl-LPI, compound ps297b and compound ps316a were also measured in quadruplicates at the conclusion of the 2 hour incubation. Guinea pig cells obtained as described above were also incubated with […] in quadruplicates and subjected to 2-hour long incubation at 37 C 5% CO2 as described above and EC50 levels measured.

wild type mice = assay: Oral Glucose GLP-1 secretion test; assay type: in vivo; conditions: oral gavage 20 mg/kg, samples 2 minutes post glucose load, N=3
Procedure: Active GLP-1 levels were measured in samples collected 2 minutes post glucose load. N=3
In a slight variation on the above method GLP-1 measurement in mice can be carried out by Peripheral GLP-1 stimulation and measurement in C57bl/6J mice. After 6 hours of fasting, the mice are weighed, and drug volumes are calculated. […] At 2 minutes post-glucose gavage, a blood sample is collected from the submandibular vein into an EDTA coated prechilled tube containing a panel of protease inhibitors. The plasma is separated by spinning at 1,500 g for 20 minutes at 4 C. the plasma is then collected and snap frozen on dry ice and store at −20 C before proceeding with hormone quantification. For hormone quantification the samples are thawed and total GLP-1 levels are quantified, GLP1(7-36)amide+GLP-1(9-36)amide, in 20 μL of plasma with the commercial ELISA kit from Millipore EZGLP1T-36K. This method is also described in Windelov J A et al Diabetologia. […]
Mice were sampled at about 2 minutes post glucose load, 20 μl of arterial blood may be sampled in K3-EDTA and KR-62436 containing tubes to collect plasma and samples are quickly store at −80° C. Plasma samples of 4 to 6 animals may be pool together and assayed to quantify the levels of active GLP-1 (such as GLP-1 (7-36)amide) using commercially available ELISA kits. […] Active GLP-1 levels were measured in samples collected 2 minutes post glucose load. […]

CCCCCCCC/C=C\CCCCCCCC(=O)Nc1ccc(-c2nnn[nH]2)cc1 [ps297b]
concentration with no sign of toxicity (Danio rerio larvae): up to 200 micromolar
GLP-1 biosynthesis and secretion from NCI-H716 L cells (NCI-H716 cells; 20 μM, 2 hours, normalized against DMSO vehicle control): able to mediate GLP-1 biosynthesis and secretion
level of GLP-1 biosynthesis and secretion compared with oleoyl-LPI (NCI-H716 cells; NCI-H716 cells, 20 μM, 2 hours): comparable to that of oleoyl-LPI
GLP-1 secretion Activity relative to oleoyl-LPI (NCI-H716 cells; NCI-H716 cells, standardized relative to maximum GLP-1 secretion obtained with oleoyl-LPI): High (high GLP-1 activity (80% and more of maximum GLP-1 secretion achieved with oleoyl-LPI))
activity in inducing and/or increasing secretion of GLP-1 from cells of the GI tract (NCI-H716 cells; summary statement, compared with oleoyl-LPI): equal to or higher than oleoyl-LPI
GLP-1 biosynthesis and secretion ex vivo ([1]; 20 μM, 2 hours, standardized against DMSO control): stimulated biosynthesis and secretion
stability after incubation ex vivo ([1]; 2 hours incubation ex vivo): remained stable after 2 hours incubation ex vivo
EC50 ([1]; Cavia porcellus, ex vivo incubation 2 hours, quadruplicates): 30 µM
GLP-1 release (active GLP-1 levels) (wild type mice): increasing GLP-1 release
